Test system: Human Colon Carcinoma Cells HCT116
Assay: Proteome changes in protein abundance upon drug treatment, 3-channel pI-multiplexing LC MS/MS
Type: cell-based
Details: 45 nM Methotrexate for 48 h vs 0.01% DMSO control, p<0.05, 570 proteins quantified, 3 biological replicates
Experimental: A three-channel isoelectric point-based multiplexing was applied for the analysis of proteome changes in protein abundance upon drug treatment, using the following procedure:
Human Colon Carcinoma Cells HCT116 were cultured at 37° C. with 5% CO2 in high-glucose Dulbecco's Modified Eagle's Medium (DMEM, Thermo Fisher Scientific) supplemented with 10% fetal bovine serum (Gibco) and 1% penicillin/streptomycin (Gibco). The cells were treated for 48 h with 45 nM Methotrexate in 0.01% dimethyl sulfoxide (DMSO). As a control experiment, cells were treated with 0.01% DMSO. The medium containing the drug (or 0.01% DMSO for the control) was replaced each 24 h by fresh medium. A total of 3 control samples and 3 treated samples were produced.
Cells (1 million cells per replicate sample) were washed twice with PBS (1 mL) and resuspended in 300 μL of lysis buffer (3% SDC, 20 mM EPPS, pH 8.5). The total protein concentration was measured using the BCA protein assay kit (Pierce) in accordance with the manufacturer's protocol. […]
6. Samples were analyzed together within MaxQuant (1% FDR and match between runs) and Quanty quantification software (1% FDR). Isoelectric point calculations were in-silico calculated as described in Pirmoradian M et al 2014. Proteins containing at least 1 peptide on each pI-channel were selected for quantification.

In the case of `CN(Cc1cnc2nc(N)nc(N)c2n1)c1ccc(C(=O)N[C@@H](CCC(=O)O)C(=O)O)cc1` [Methotrexate], the “number of proteins that demonstrated a statistical difference between the control and treated” value is reported as 4.

— patent US20200408775A1, “APPARATUS AND METHOD FOR MULTIPLEXED PROTEIN QUANTIFICATION” (BIOMOTIF AB, priority 2018, published 2020)
